Consider three compounds from patent US10123985B2, “Therapeutic strategies for treating mitochondrial disorders” (Whitehead Institute for Biomedical Research, priority 2015, dated 2018).

Each structure is given as a SMILES string. Entries after “also recorded” stand apart in the source; their conditions may differ.

Test [1] deals with A172, H1299, HeLa, U87, FL5.12, and MEF cell lines. Put plainly: Proliferation assay of a panel of cell lines treated with respiration inhibitors. Type of test: cell-based. The following applies: rotenone, antimycin or oligomycin plus the substance. Here is the method: 143B, A172, H1299, HeLa, U87 and MEF cells were cultured in Dulbecco's Modified Eagle's Medium (DMEM) (Gibco) supplemented with 10% fetal bovine serum (FBS) and penicillin-streptomycin. FL5.12 cells were cultured in the same medium and supplemented with 5 μg/mL recombinant mouse IL-3 (R&D Systems). 143B cybrid cell lines (WT Cybrid and CytB) were cultured in DMEM with 10% FBS, penicillin-streptomycin, and 0.1 mg/mL uridine. All cells incubated at 37° C. with 5% CO2.
Adherent cell lines growing in log phase were trypsinized, counted, and plated onto 6 well dishes (Corning) in 2 mL complete DMEM and incubated overnight. Initial seeding density was 2E4 cells per well for 143B, A172, H1299, HeLa, 143B WT Cybrid, and MEFs and 3E4 cells for 143B CytB and U87 cells. The following day, one plate of cells was counted to determine the initial cell count at the time of treatment. Cells were washed 2 times with 2 mL phosphate buffered saline (PBS) and 4 mL media premixed with the indicated treatments was added. FL5.12 cells, a suspension cell line, were washed 2 times in PBS and added directly to media containing the indicated treatments and 5 μg/mL recombinant mouse IL-3. Proliferation rate assay media was DMEM without pyruvate containing 10% dialyzed FBS, penicillin-streptomycin, and 0.1 mg/mL uridine, unless otherwise noted. For these cell lines at these seeding densities it was determined that for 4 days the cells maintained logarithmic proliferation (data not shown), therefore final cell counts were measured 4 days after treatment. Cells were counted using Cellometer Auto T4 Plus Cell Counter (Nexcelom Bioscience). Proliferation rate was determined using the following formula: Proliferation Rate (Doublings per day)=(log2(Final cell count (day 5)/Initial cell count (day 1))/4 (days)

A further test concerns 143B CytB cells. Put plainly: Purine nucleotide extraction and LC-MS analysis. Format: cell-based. The method, then: 143B CytB cells were seeded at 400,000 cells/well in 6 well dishes overnight. The following day, cells were washed 2 times in PBS and media was changed to proliferation assay media with or without the indicated treatments. After 15 hours polar metabolites were extracted from cells using 250 μL of ice cold 80% methanol. After scraping the cells, 250 μL of chloroform was added before vortexing for 10 min at 4° C. and centrifugation for 10 min at 4° C. at 16,000 g, 40 μL of the top, water-methanol, layer was transferred into a LC-MS tube and samples were analyzed. A Dionex UltiMate 3000 ultra-high performance liquid chromatography system connected to a Q Exactive benchtop Orbitrap mass spectrometer, equipped with an Ion Max source and a HESI II probe (Thermo Fisher Scientific) was used to quantify metabolites. Samples were separated by chromatography by injecting 10 μL of sample on a SeQuant ZIC-pHILIC Polymeric column (2.1×150 mm 5 μM, EMD Millipore). Flow rate was set to 150 μL/min, temperatures were set to 25° C. for column compartment and 4° C. for autosampler sample tray. Mobile Phase A consisted of 20 mM ammonium carbonate, 0.1% ammonium hydroxide. Mobile Phase B was 100% acetonitrile. The mobile phase gradient (% B) was set in the following protocol: 0-20 min.: linear gradient from 80% to 20% B; 20-20.5 min.: linear gradient from 20% to 80% B; 20.5-28 min.: hold at 80% B. Mobile phase was introduced into the ionization source set to the following parameters: sheath gas=40, auxiliary gas=15, sweep gas=1, spray voltage=−3.1 kV, capillary temperature=275° C., S-lens RF level=40, probe temperature=350° C. Metabolites were monitored using full scan in negative mode in the range of 285-700 m/z, with the resolution set at 140,000, the AGC target at 106, and the maximum injection time at 250 msec. Relative quantitation of metabolites was performed with XCalibur QuanBrowser 2.2 (Thermo Fisher Scientific) using a 5 ppm mass tolerance and referencing an in-house retention time library of chemical standards.

A further test has as its system Jurkat cells. Put plainly: Proliferation assay (Cell Titer Glo, 5 days) of wild type and knock-out Jurkat cells. Format: cell-based, human. The note with it: 5 days. The method, then: sgRNAs (oligonucleotide sequences are indicated above) were cloned into lentiCRISPR-v1 linearized with BsmBI by Gibson Assembly (NEB). sgRNA expressing vector along with lentiviral packaging vectors Delta-VPR and CMV VSVG were transfected into HEK-293T cells using the XTremeGene 9 transfection reagent (Roche). Similarly, for overexpression cell lines, cDNA vectors along with retroviral packaging vectors gag-pol and CMV VSV-G were transfected into HEK-293T cells. Media was changed 24 hours after transfection.

Test [2] has as its system MERRF and CYTB cybrids, 143B ρ0 cells. Put plainly: Cell counting assay of cybrids and 143B ρ0 cells. Format: cell-based. The following applies: 6 days; for Proliferation of ETC-deficient cybrids and 143B ρ0 cells: RPMI with uridine, pyruvate (1 mM) or aspartate (10 mM); for Proliferation of ETC-defective cybrids expressing sgGOT1: uridine and pyruvate (1 mM), with or without aspartate (10 mM). Here is the method: Cybrids or 143B ρ0 cells were plated in triplicate in 12 well plates at 5,000-20,000 cells per well in 1.5 mL as described in each experiment. After six days, the entire contents of the well was trypsinized and counted using a Beckman Z2 Coulter Counter with a size selection setting of 8-30 um.
Transmitochondrial cytoplasmic hybrid cells (cybrids) are commonly used to study the mechanisms through which mutations in mitochondrial DNA (mtDNA) impair cellular function (Schon et al., 2012). These cells harbor patient-derived mitochondrial genomes with pathogenic mutations, and, like cells treated with ETC inhibitors, require pyruvate to proliferate in culture (King and Attardi, 1989, 1996). To expand upon our work with pharmacological inhibition of the ETC, we asked if aspartate supplementation rescues the proliferation of cells with genetic ETC defects. We used two patient-derived cybrid cells, the first with a homoplasmic microdeletion in the cytochrome b subunit of complex III (CYTB) associated with a form of parkinsonism and encephalopathy (De Coo et al., 1999; Rana et al., 2000), and the second with a homoplasmic point mutation in the mitochondrially encoded tRNA lysine (MT-TK) associated with myoclonic epilepsy with ragged red fibers (MERRF) (Wallace et al., 1988). To characterize the metabolic needs of these cybrids, as well as cells lacking mtDNA (143B ρ0), we cultured them in media with or without pyruvate or aspartate.

[3] abbreviates: cells without AKB supplementation compared to AKB replete cells.
Where [4] appears, read: pyruvate (1 mM), phenformin, piericidin, antimycin.

Take `CCC(=O)C(=O)O` [AKB, α-ketobutyrate]: the “Proliferation of cell line panel with supplementation” value in test [1] is “sufficient to restore proliferation in the presence of ETC inhibitors”. Besides, the IMP level entry with 143B CytB cells (cells cultured without AKB compared to AKB replete cells) is “increased levels”. Also, in the test with 143B CytB cells (setting [3]), the AMP level entry was “decreased” and the GMP level result is on record as “decreased”. In the test on 143B CytB cells (upon AKB withdrawal), the AMP/IMP ratio entry is “dramatically decrease” and the GMP/IMP ratio result is given as “dramatically decrease”.
Consider `N[C@@H](CC(=O)O)C(=O)O` [aspartate], for which the “Proliferation of cell line panel with supplementation” value in test [1] is “rescued ETC inhibitor-induced proliferation decreases in all other cell lines tested”. In the test with 143B CytB cells (143B CytB cells with aspartate), the AMP level entry is on record as “restores AMP pools”, the GMP level entry is “not restored; also recorded: actually lower” and the IMP level entry was “relieves the accumulation of IMP”. Also, in the test on Jurkat cells (aspartate (10 mM) in RPMI), the “Proliferation of phenformin-treated wild-type Jurkat cells with aspartate” value was “partially reversed the anti-proliferative effects of phenformin on wild-type cells”; the “Viability and proliferation of phenformin-treated GOT1-null Jurkat cells with aspartate” value was “rescues death of GOT1-null cells upon ETC inhibition; also recorded: prevented the phenformin induced death of GOT1-null cells and even enabled these cells to proliferate in the presence of the drug”. In addition, in test [2], the “Proliferation of ETC-deficient cybrids and 143B ρ0 cells” value is “on its own enabled their proliferation; also recorded: can replace pyruvate in enabling the proliferation of patient-derived mtDNA mutant cybrids and 143B ρ0 cells”; the “Proliferation of ETC-defective cybrids expressing sgGOT1” value is given as “bypassed the need for GOT1; also recorded: can be bypassed by aspartate”.
Turning to `CC(=O)C(=O)O` [pyruvate], the “Proliferation of ETC inhibitor-treated MDH1-null Jurkat cells with pyruvate” value in the test on Jurkat cells (pyruvate (1 mM)) is “did not stimulate aspartate synthesis or rescue proliferation; also recorded: does not rescue the proliferation of phenformin-treated MDH1 null cells”. For the same compound, the “Proliferation of ETC inhibitor-treated PC-null Jurkat cells with pyruvate” value with Jurkat cells (pyruvate (1 mM), phenformin (10 μM), antimycin (1 μM) or piericidin (0.5 μM)) was “still prevented the anti-proliferative effects of ETC inhibitors; also recorded: can rescue the death of PC-null cells induced by ETC inhibition”. Also, in the test with Jurkat cells (setting [4]), the “Proliferation of ETC inhibitor-treated wild type Jurkat cells with pyruvate” value is recorded as “almost completely blocked the anti-proliferative effects of several ETC inhibitors”; the “Viability and proliferation of ETC inhibitor-treated GOT1-null Jurkat cells with pyruvate” value was “cannot rescue death of GOT1-null cells induced by ETC inhibitors; also recorded: no beneficial effect on the GOT1-null cells”. In test [2], the “Proliferation of ETC-deficient cybrids and 143B ρ0 cells” value is “proliferated in media supplemented with pyruvate”; the “Proliferation of ETC-defective cybrids expressing sgGOT1” value is listed as “requires GOT1; also recorded: enables the proliferation of patient-derived cybrid cells in a GOT1-dependent fashion”.
